This is an account of results in patent EP1094066A2, “Condensed heterocyclic glutamic acid derivatives as antiproliferative agents” (AGOURON PHARMACEUTICALS, INC., priority 1993, dated 1994).

This experiment relates to L1210 murine leukemia (ATCC CCL 219) cell line. The experiment can be described thus: Cellular growth inhibition, MTT-tetrazolium reduction assay. The following applies: Mus musculus, 72 h; L1210 cells, 3 days of continuous exposure. In kind it is cell-based. How it is done:
Cellular growth in the presence of the compounds according to the present invention was assessed using the L1210 murine leukemia (ATCC CCL 219) cell line. The cell line was maintained in RPMI 1640 medium containing 5% heat-inactivated fetal bovine serum without antibiotics.
Water insoluble derivatives were dissolved in DMSO and diluted to a final concentration of 0.5% solvent in cell cultures.

Molecules are shown by their SMILES.

`Nc1nc2c(c(=O)[nH]1)SC(CCc1ccc(C(=O)N[C@@H](CCC(=O)O)C(=O)O)cc1)CN2` (stereo partly shown) [(14), 2-[4-[2-(2-Amino-4-oxo-4,6,7,8-tetrahydro-3H-pyrimido[5,4-b][1,4]thiazin-6-yl)-ethyl]benzoylamino)pentanedioic acid] came in with a 50% inhibitory concentration (IC50) of 50 nM.
